{"source": "patent US20210379210A1", "about": "“RADIOLIGANDS FOR IMAGING THE LPA1 RECEPTOR” (BRISTOL-MYERS SQUIBB COMPANY, priority 2018, published 2021)", "key": {"[1]": {"experiment": "Free fraction (free of protein binding) of the PET radioligand", "type": "in vitro ADME", "settings": "read-out: free fractions, free of protein binding"}, "[2]": {"tested_on": "LPA1", "experiment": "In-vivo PET imaging in cynomolgus monkeys, lung SUV and % displacement", "parameters": "species or system cynomolgus monkey", "settings": "healthy cynomolgus monkeys, listed as [^18F]-(1S,3S)-3-(6-(5-((((4-(fluoro)butyl)(methyl)carbamoyl)oxy)methyl)-1-meth))", "procedure": "[^18F]-(1S,3S)-3-((6-(5-((((4-(fluoro)butyl)(methyl)carbamoyl)oxy)methyl)-1-methyl-1H-1,2,3-triazol-4-yl)-2-methylpyridin-3-yl)oxy)cyclohexane-1-carboxylic acid was tested as an LPA1 PET radioligand to validate the target engagement of LPA1 antagonist used in normal healthy cynomolgus monkeys and to support future clinical use of this agent as a PET radioligand. In this experiment, the specific binding to LPA1, PET imaging in normal healthy cynomolgus monkeys (n=3) was performed. PET images were acquired at baseline and again at after oral administration of an LPA1 antagonist (3, 10, and 30 mg/kg) or vehicle solution (0.5% Methocel A4M: 0.1% Tween 80 (Polysorbate 80): 99.4% Water) only. The oral dosing time of LPA1 antagonist or vehicle was 3 hours prior to [^18F]-labeled antagonist injection. Cynomolgus monkeys on study were fasted beginning the morning of the imaging day. Veterinary Scientists induced initial anesthesia pre-op cocktail of 0.02 mg/kg Atropine, and 5 mg/kg Telazol, 0.1 mg/kg Hydromorphone IM. […] Vital signs were continuously monitored throughout the imaging study. […] After returning to a conscious state, the monkey was transferred to an isolation room with food and water until the radioactivity was decayed to background levels. […]"}}, "note": "“And” between values parts separate entries of the source, which are not always exact repeats. Identical values can stand only once.", "data": [{"smiles": "Cc1nc(-c2nnn(C)c2COC(=O)N(C)CCCC[18F])ccc1O[C@H]1CCC[C@H](C(=O)O)C1", "note": "[Example 16]", "values": [{"measurement": "fraction unbound", "setting": "[1]", "result": "0.05 to 0.11"}, {"measurement": "SUV in Lung (60-90 min)", "setting": "[2]; individual baseline scans", "result": "0.307 and 0.428 and 0.333 and 0.273 and 0.356 and 0.379 and 0.403 and 0.459"}, {"measurement": "average SUV at baseline for individual animals", "setting": "[2]; lung, mean of baseline scans per animal", "result": "0.398 and 0.321 and 0.391"}]}]}
